From US20240261422A1, “ANTHRACYCLINE ANTIBODY CONJUGATES” (SEAGEN INC., priority 2021, published 2024)
Where two headings read alike, the source gives them in different places.

Experiments:
786-O, MDR + RCC = test: In vitro growth inhibition (CellTiter-Glo, 96 h), 786-O; type: cell-based; details: for IC50: Homo sapiens, read-out: IC50 (nM) 786-O, MDR + RCC; for IC50 (ng/mL) 786-O, MDR + RCC: cOKT9 ADCs, average DAR 8, 96 h
Description: (§1) Cell culture of cell lines as listed in Table 2-4 in log-phase growth were seeded in 96-well plates and grown for 24 h in cell culture media containing 150 μL RPMI 1640 supplemented with 20% FBS (see Mol. Cancer Ther., 2016, 15(5), 938-945 and Mol. Cancer Ther., 2018, 17(8), 1752-1760). Serial dilutions of free drugs or antibody-drug conjugates (final concentration between 0.004 nM and 1 μM) in cell culture media were prepared at 4× working concentrations; 50 μL of each dilution was added to the 96-well plates. Following addition of the drug or ADC, the cells were incubated with test articles (free drugs or ADCs) for 4 d at 37° C. After 96 h, growth inhibition was assessed by CellTiter-Glo® (Promega, Madison, WI) and luminescence was measured on a plate reader (brand, model).
(§2) Cells were treated for 96 hours with anthracycline analogues listed in Table 2, and then assessed for viability as described in the procedures as described above. […] ND denotes value not determined with that assay for the specified compound.
(§3) ADCs were prepared by full reduction of interchain disulfides to reveal 8-conjugatable cysteines/antibody, and subsequent alkylation with the maleimide-containing drug-linkers (Compounds 14, 18, 21, 24, 29, 32, 33, 34, and 48) according to the procedures described in Mol. Cancer Ther. 2018, 17(8). 1752-1760. Conjugates of antibody cOKT9 were prepared with anthracycline linkers. Cancer cell lines were treated with cOKT9 ADCs (average DAR of 8:1) for 96 h and then assessed for viability. […] ND denotes value not determined with that assay for the specified compound.

[1] = tested on: L540cy, 786-O, BxPC3, HL60, HL60/RV; test: cells; details: 96 h, read-out: IC50 values on the cancer lines tested
HL60/RV, MDR + AML = test: In vitro growth inhibition (CellTiter-Glo, 96 h), HL60/RV; type: cell-based; details: for IC50: Homo sapiens, read-out: IC50 (nM) HL60/RV, MDR + AML; for IC50 (ng/mL) HL60/RV, MDR + AML: cOKT9 ADCs, average DAR 8, 96 h
Description: as §1, §2, §3

HL60, AML = test: In vitro growth inhibition (CellTiter-Glo, 96 h), HL60; type: cell-based; details: for IC50: Homo sapiens, read-out: IC50 (nM) HL60, AML; for IC50 (ng/mL) HL60, AML: cOKT9 ADCs, average DAR 8, 96 h
Description: as §1, §2, §3

L540cy, HL = test: In vitro growth inhibition (CellTiter-Glo, 96 h), L540cy; type: cell-based; details: for IC50: L540cy, 96 h, read-out: IC50 (nM) L540cy, HL
Description: as §1, §2, §3
(§4) Anti-CD30 ADCs comprising cAC10 antibody conjugated to drug-linkers 24, 32, 29, 18, 14, and 48 with an average DAR of 4 were prepared for evaluation on a CD30-expressing lymphoma cell line panel. […] Anti-CD30 conjugates bearing the PNU linkers 24, 32, 29, 18, and 14 were active on L540cy, DEL, and Karpas299 lymphoma cell lines, and conjugate 48 was active on L540cy and DEL cell lines, with IC50s ranging from 0.2-4 ng/mL.

BxPC3, PancCa = test: In vitro growth inhibition (CellTiter-Glo, 96 h), BxPC3; type: cell-based; details: for IC50: Homo sapiens, read-out: IC50 (nM) BxPC3, PancCa; for IC50 (ng/mL) BxPC3, PancCa: cOKT9 ADCs, average DAR 8, 96 h
Description: as §1, §2, §3

[2] = tested on: L540cy, 786-O, BxPC3, HL60, HL60/RV; details: 24 h
Karpas299, ALCL = test: In vitro growth inhibition (CellTiter-Glo, 96 h), Karpas299; type: cell-based; details: cAC10 (anti-CD30) ADCs, average DAR 4
Description: as §1, §4

Ramos, CD30 − NHL = test: In vitro growth inhibition (CellTiter-Glo, 96 h), Ramos; type: cell-based; details: cAC10 (anti-CD30) ADCs, average DAR 4
Description: as §1, §4

[3] = tested on: L540cy Hodgkin's lymphoma xenograft; test: L540cy CD30+ Hodgkin lymphoma xenograft model; type: in vivo, SCID mice; details: cAC10 S239C ADCs, average DAR 2; single dose i.p. at about 100 mm^3
Description: (§5) All experiments were conducted in concordance with the Animal Care and Use Committee in a facility fully accredited by the Association for Assessment and Accreditation of Laboratory Animal Care. Efficacy experiments were conducted using the L540cy Hodgkin's lymphoma and DEL/BVR anaplastic large cell lymphoma xenograft models (Mol. Cancer Ther., 2018, 17(8), 1752-1760). Tumor cells, as a cell suspension, were implanted subcutaneously in immune-compromised SCID female mice. Upon tumor engraftment, the mice were randomized into study groups when the average tumor volume reached about 100 mm^3. The ADCs were dosed once via intraperitoneal injection. Tumor volume as a function of time was determined using the formula (L×W2)/2. Animals were euthanized when tumor volumes reached 1000 mm^3.
Anti-CD30 conjugates bearing PNU drug-linkers 29, 18, and 14 were evaluated in a CD30-expressing xenograft model as described above. cAC10 antibody with the S239C mutation is conjugated to the PNU drug linkers with an average DAR of 2 to minimize the effects of ADC pharmacokinetics. Tumor-bearing mice were administered a single dose intraperitoneally (i.p.) of test article once the average tumor volume reached 100 mm^3 (typically on day 8). Untreated mice were used as negative controls.

L428, MDR + HL = test: In vitro growth inhibition (CellTiter-Glo, 96 h), L428; type: cell-based; details: cAC10 (anti-CD30) ADCs, average DAR 4
Description: as §1, §4

DEL, ALCL = test: In vitro growth inhibition (CellTiter-Glo, 96 h), DEL; type: cell-based; details: cAC10 (anti-CD30) ADCs, average DAR 4
Description: as §1, §4

[4] = tested on: DEL/BVR anaplastic large cell lymphoma xenograft; test: DEL/BVR MDR+, CD30+ anaplastic large cell lymphoma xenograft model; type: in vivo, SCID mice; details: cAC10 S239C ADCs, average DAR 2; 3 mg/kg single dose i.p.
Description: as §5
Anti-CD30 conjugates bearing PNU drug-linkers 29, 18, and 14 were further evaluated in a DEL/BVR MDR+, CD30+ anaplastic large cell lymphoma xenograft model. cAC10 antibody with the S239C mutation is conjugated to the PNU drug linkers with an average DAR of 2 to minimize the effects of ADC pharmacokinetics. Tumor-bearing mice were administered a 3 mg/kg single dose intraperitoneally (i.p.) of test article once the average tumor volume reached 100 mm^3 (typically on day 4). […] However, the conjugate comprising PNU linker 29 appeared to be non-efficacious, and only provided minimal tumor growth delay (FIG. 2). Untreated mice were used as negative controls.

[5] = 786-0, anthracycline free drugs, 96 h
[6] = HL-60, anthracycline free drugs, 96 h
[7] = BXPC-3, anthracycline free drugs, 96 h
[8] = cAC10 (anti-CD30) ADCs, average DAR 4
[9] = cOKT9 ADCs, average DAR 8, 96 h

Row | Compound | IC50 (786-O, MDR + RCC; [5]) | IC50 [1] | IC50 (HL60/RV, MDR + AML; [6]) | IC50 (HL60, AML; [6]) | IC50 (L540cy, HL; anthracycline free drugs) | IC50 (BxPC3, PancCa; [7]) | IC50 (ng/mL) 786-O, MDR + RCC (786-O, MDR + RCC) | IC50s of cOKT9 conjugates [2] | IC50 (ng/mL) HL60/RV, MDR + AML (HL60/RV, MDR + AML) | IC50 (ng/mL) HL60, AML (HL60, AML) | IC50 (ng/mL) L540cy, HL (L540cy, HL; [8]) | IC50 (ng/mL) L540cy, HL (L540cy, HL; [9]) | IC50 (ng/mL) Karpas299, ALCL (Karpas299, ALCL) | IC50 (ng/mL) Ramos, CD30 − NHL (Ramos, CD30 − NHL) | IC50 (ng/mL) L428, MDR + HL (L428, MDR + HL) | IC50 (ng/mL) BxPC3, PancCa (BxPC3, PancCa) | IC50 (ng/mL) DEL, ALCL (DEL, ALCL) | further results
1 | COc1cccc2c1C(=O)c1c(O)c3c(c(O)c1C2=O)C[C@@](O)(C(=O)CO)C[C@@H]3O[C@H]1C[C@H](N)[C@H](O)[C@H](C)O1 [Compound 1, Doxorubicin, reference compound] | 10 to 100 nM | 13 to 390 nM | 100 to 1000 nM | 10 to 100 nM | 10 to 100 nM | 100 to 1000 nM | – | – | – | – | – | – | – | – | – | – | – | –
2 | COc1cccc2c1C(=O)c1c(O)c3c(c(O)c1C2=O)C[C@@](O)(C(=O)O)C[C@@H]3O[C@H]1C[C@H](N)[C@H](O)[C@H](C)O1 [Compound 2, (2S,4S)-4-(((2R,4S,5S,6S)-4-amino-5-hydroxy-6-methyltetrahydro-2H-pyran-2-yl)oxy)-2,5,12-trihydroxy-7-methoxy-6,11-dioxo-1,2,3,4,6,11-hexahydrotetracene-2-carboxylic acid] | > 1000 nM | > 1000 nM | > 1000 nM | > 1000 nM | > 1000 nM | > 1000 nM | – | – | – | – | – | – | – | – | – | – | – | –
3 | COc1cccc2c1C(=O)c1c(O)c3c(c(O)c1C2=O)C[C@@](O)(C(=O)CO)C[C@@H]3O[C@H]1C[C@H](N2CCO[C@H](OC)C2)[C@H](O)[C@H](C)O1 [Compound 3, Nemorubicin, reference compound] | – | 2 to 3 nM | – | – | – | – | – | – | – | – | – | – | – | – | – | – | – | IC50 (786-O, MDR + RCC; 786-0, 96 h): < 10 nM; IC50 (L540cy, HL): < 10 nM; IC50 (BxPC3, PancCa; BXPC-3, 96 h): < 10 nM
4 | COc1cccc2c1C(=O)c1c(O)c3c(c(O)c1C2=O)C[C@@](O)(C(=O)O)C[C@@H]3O[C@H]1C[C@H]2[C@H](O[C@@H]3[C@@H](OC)OCCN32)[C@H](C)O1 [Compound 6, (2S,4S)-2,5,12-trihydroxy-7-methoxy-4-(((1S,3R,4aS,9S,9aR,10aS)-9-methoxy-1-methyloctahydro-1H-pyrano[4′,3′:4,5]oxazolo[2,3-c][1,4]oxazin-3-yl)oxy)-6,11-dioxo-1,2,3,4,6,11-hexahydrotetracene-2-carboxylic acid] | < 10 nM | 5 to 19 nM | – | – | < 10 nM | 10 to 100 nM | – | – | – | – | – | – | – | – | – | – | – | IC50 (HL60/RV, MDR + AML; HL-60, 96 h): 10 to 100 nM; IC50 (HL60, AML; HL-60, 96 h): 10 to 100 nM
5 | COc1cccc2c1C(=O)c1c(O)c3c(c(O)c1C2=O)C[C@@](O)(C(=O)NCCNC(=O)CCN1C(=O)C=CC1=O)C[C@@H]3O[C@H]1C[C@H]2[C@H](O[C@@H]3[C@@H](OC)OCCN32)[C@H](C)O1 [Compound 14, (2S,4S)—N-(2-(3-(2,5-dioxo-2,5-dihydro-1H-pyrrol-1-yl)propanamido)ethyl)-2,5,12-trihydroxy-7-methoxy-4-(((1S,3R,4aS,9S,9aR,10aS)-9-methoxy-1-methyloctahydro-1H-pyrano[4′,3′:4,5]oxazolo[2,3-c][1,4]oxazin-3-yl)oxy)-6,11-dioxo-1,2,3,4,6,11-hexahydrotetracene-2-carboxamide] | – | – | – | – | – | – | A (IC50<10 ng/mL) | 1 to 150 ng/mL | D (IC50≥1000 ng/mL) | C (100 ng/mL≤IC50<1000 ng/mL) | B (1 ng/mL≤IC50<10 ng/mL) | A (IC50<10 ng/mL) | A (IC50<1 ng/mL) | E (IC50≥500 ng/mL) | B (1 ng/mL≤IC50<10 ng/mL) | A (IC50<10 ng/mL) | B (1 ng/mL≤IC50<10 ng/mL) | antitumor activity, L540cy xenograft (FIG. 1) [3]: active with a majority of animals in a complete regression; antitumor activity, DEL/BVR xenograft (FIG. 2) [4]: efficacious in suppressing tumor growth
6 | COc1cccc2c1C(=O)c1c(O)c3c(c(O)c1C2=O)C[C@@](O)(C(=O)N(C)CCN(C)C(=O)OCc1ccc(NC(=O)[C@H](C)NC(=O)[C@@H](NC(=O)CCN2C(=O)C=CC2=O)C(C)C)cc1)C[C@@H]3O[C@H]1C[C@H]2[C@H](O[C@@H]3[C@@H](OC)OCCN32)[C@H](C)O1 [Compound 32, 4-((S)-2-((S)-2-(3-(2,5-dioxo-2,5-dihydro-1H-pyrrol-1-yl)propanamido)-3-methylbutanamido)propanamido)benzyl methyl(2-((2S,4S)-2,5,12-trihydroxy-7-methoxy-4-(((1S,3R,4aS,9S,9aR,10aS)-9-methoxy-1-methyloctahydro-1H-pyrano[4′,3′:4,5]oxazolo[2,3-c][1,4]oxazin-3-yl)oxy)-N-methyl-6,11-dioxo-1,2,3,4,6,11-hexahydrotetracene-2-carboxamido)ethyl)carbamate] | – | – | – | – | – | – | C (100 ng/mL≤IC50<1000 ng/mL) | 1 to 150 ng/mL | C (100 ng/mL≤IC50<1000 ng/mL) | B (10 ng/mL≤IC50<100 ng/mL) | C (10 ng/mL≤IC50<100 ng/mL) | B (10 ng/mL≤IC50<100 ng/mL) | B (1 ng/mL≤IC50<10 ng/mL) | D (100 ng/mL≤IC50<500 ng/mL) | E (IC50≥500 ng/mL) | B (10 ng/mL≤IC50<100 ng/mL) | B (1 ng/mL≤IC50<10 ng/mL) | activity of cOKT9 conjugates on multidrug resistant HL60/RV (HL60/RV, MDR + AML; cOKT9 ADCs DAR 8, result in words): active
